ChEMBL document CHEMBL1201862, “PubChem BioAssay data set” (2004)
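Test compounds were applied to cells in 96-well plates for 48 hours at 5 doses. Abbreviation: GI50, concentration required for 50% inhibition of growth.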 Calls of active or inactive are those of the source. No stated cut-off is given here; in the data, active = GI50 up to about 1.1 µM and inactive = higher.

Tests used:
Test in all cases: NCI anticancer screen, dose series, 48 h
[1] = system: BT-549
[2] = system: Malme-3M
[3] = system: NCI-H460
[4] = system: ACHN
[5] = system: IGROV-1
[6] = system: LOX IMVI
[7] = system: M14
[8] = system: Hs-578T
[9] = system: CCRF-CEM
[10] = system: SK-MEL-5
[11] = system: K562
[12] = system: SF-539
[13] = system: KM12
[14] = system: MOLT-4
[15] = system: MCF7
[16] = system: SNB-75
[17] = system: NCI/ADR-RES
[18] = system: HOP-62
[19] = system: UO-31
[20] = system: TK-10
[21] = system: PC-3
[22] = system: MDA-N
[23] = system: SW-620
[24] = system: RXF 393
[25] = system: SK-MEL-2
[26] = system: NCI-H23
[27] = system: HT-29
[28] = system: SR
[29] = system: OVCAR-4
[30] = system: UACC-257
[31] = system: MDA-MB-435
[32] = system: A549
[33] = system: DU-145
[34] = system: HCT-116
[35] = system: OVCAR-3
[36] = system: SN12C
[37] = system: CAKI-1
[38] = system: SK-MEL-28
[39] = system: SF-268
[40] = system: OVCAR-5
[41] = system: COLO 205
[42] = system: HCC 2998
[43] = system: HCT-15
[44] = system: U-251
[45] = system: T47D
[46] = system: SNB-19
[47] = system: MDA-MB-231
[48] = system: RPMI-8226
[49] = system: UACC-62
[50] = system: SK-OV-3
[51] = system: HOP-92
[52] = system: 786-0
[53] = system: HL-60
[54] = system: SF-295
[55] = system: OVCAR-8
[56] = system: A498
[57] = system: NCI-H226
[58] = system: NCI-H522
[59] = system: EKVX

Measured: GI50

CC(=O)OCC1OC(n2c(C)c(/N=N/c3ccc(Cl)cc3)c(C)c(C#N)c2=S)C(OC(C)=O)C(OC(C)=O)C1OC(C)=O (configuration not stated)
> 100 µM: [43]
inactive: [1] 15.3 µM | [2] > 100 µM | [3] > 100 µM | [4] 58.1 µM | [5] 41.8 µM | [6] 86.3 µM | [7] > 100 µM | [8] 21.5 µM | [9] > 100 µM | [10] 64.3 µM | [11] > 100 µM | [12] 44.1 µM | [13] > 100 µM | [14] > 100 µM | [15] > 100 µM | [16] 20.1 µM | [17] > 100 µM | [18] 22.8 µM | [19] > 100 µM | [20] 40.5 µM | [21] > 100 µM | [22] > 100 µM | [23] > 100 µM | [24] 18.2 µM | [25] 34.2 µM | [26] > 100 µM | [27] > 100 µM | [28] > 100 µM | [29] > 100 µM | [30] 62.8 µM | [31] > 100 µM | [32] 64.4 µM | [33] 73.3 µM | [34] 48.1 µM | [35] > 100 µM | [36] > 100 µM | [37] 50.8 µM | [38] > 100 µM | [39] 27.9 µM | [40] 31.8 µM | [41] > 100 µM | [42] > 100 µM | [44] 28.1 µM | [45] > 100 µM | [46] 28.8 µM | [47] 65.2 µM | [48] > 100 µM | [49] 38.4 µM | [50] 36.3 µM | [52] 19.9 µM | [53] > 100 µM | [54] 25.1 µM
active: [51] 0.205 µM

CN(C)c1ccc(/C=C(\NC(=O)c2ccccc2)C(=O)NC(CCC(=O)O)C(=O)O)cc1 (configuration not stated)
> 100 µM: [43]
inactive: [55] > 100 µM | [1] > 100 µM | [2] > 100 µM | [3] > 100 µM | [4] > 100 µM | [5] > 100 µM | [56] > 100 µM | [57] > 100 µM | [6] > 100 µM | [7] > 100 µM | [8] > 100 µM | [9] > 100 µM | [10] > 100 µM | [11] > 100 µM | [12] > 100 µM | [13] > 100 µM | [14] > 100 µM | [15] > 100 µM | [16] > 100 µM | [17] > 100 µM | [18] > 100 µM | [19] > 100 µM | [20] > 100 µM | [21] > 100 µM | [22] > 100 µM | [23] > 100 µM | [24] > 100 µM | [25] > 100 µM | [26] > 100 µM | [27] > 100 µM | [29] > 100 µM | [58] > 100 µM | [30] > 100 µM | [31] > 100 µM | [32] > 100 µM | [33] > 100 µM | [34] > 100 µM | [35] > 100 µM | [36] > 100 µM | [37] > 100 µM | [38] > 100 µM | [39] > 100 µM | [40] > 100 µM | [41] > 100 µM | [42] > 100 µM | [44] > 100 µM | [45] > 100 µM | [46] > 100 µM | [47] > 100 µM | [48] > 100 µM | [49] > 100 µM | [50] > 100 µM | [51] > 100 µM | [52] > 100 µM | [53] > 100 µM | [54] > 100 µM | [59] > 100 µM
